These results are taken from patent publication US9725414B2, “Fungicidal N-bicycloalkyl and N-tricycloalkyl pyrazole-4-(thio)carboxamide derivatives” (priority 2011, dated 2017).

Where two headings read alike, the source gives them in different places.

The subject of data set [1] is Pyrenophora teres. The data set can be described thus: Example E: in vivo preventive test on Pyrenophora teres (barley), DMF/emulsifier preparation. Particulars: 500 ppm of active ingredient, evaluated 7-9 days after inoculation. The method, then:
In Vivo Preventive Test on Pyrenophora teres (Barley) Solvent: 49 parts by weight of N,N-dimethylformamide Emulsifier: 1 part by weight of alkylaryl polyglycol ether To produce a suitable preparation of active compound, 1 part by weight of active compound is mixed with the stated amounts of solvent and emulsifier, and the concentrate is diluted with water to the desired concentration. To test for preventive activity, young plants are sprayed with the preparation of active compound at the stated rate of application. One day after this treatment, the plants are inoculated with an aqueous spore suspension of Pyrenophora teres. The plants remain for 48 hours in an incubation cabinet at 22° C. and a relative atmospheric humidity of 100%.

Another data set deals with Alternaria solani. Put plainly: Example C: in vivo preventive test on Alternaria solani (tomato). Particulars: 500 ppm of active ingredient, evaluated 7 days after inoculation. As to the method: In Vivo Preventive Test on Alternaria solani (Tomato) Solvent: 49 parts by weight of N,N-dimethylformamide Emulsifier: 1 part by weight of alkylarylpolyglycolether To produce a suitable preparation of active compound, 1 part by weight of active compound is mixed with the stated amounts of solvent and emulsifier, and the concentrate is diluted with water to the desired concentration. To test for preventive activity, young plants are sprayed with the preparation of active compound at the stated rate of application. One day after this treatment, the plants are inoculated with an aqueous spore suspension of Alternaria solani. The plants remain for one day in an incubation cabinet at approximately 22° C. and a relative atmospheric humidity of 100%. Then the plants are placed in an incubation cabinet at approximately 20° C. and a relative atmospheric humidity of 96%.

The test system of the next data set is Sphaerotheca fuliginea. Put plainly: Example B: in vivo preventive test on Sphaerotheca fuliginea (powdery mildew on cucurbits), gherkin plants. The note with it: 500 ppm of active ingredient, grading 12 days after contamination. As to the method:
In Vivo Preventive Test on Sphaerotheca fuliginea (Powdery Mildew on Cucurbits) […] Gherkin plants (“Vert petit de Paris” variety), sown in starter cups on a 50/50 peat soil-pozzolana substrate and grown at 24° C. are treated at the Z11 cotyledon stage by spraying with the active ingredient prepared as described above. Plants, used as controls, are treated with the mixture of acetone/tween/DMSO/water not containing the active material. After 24 hours, the plants are contaminated by spraying the cotyledons with an aqueous suspension of Sphaerotheca fuliginea spores (100 000 spores per mL). The spores are collected from infected plants.

The nature of data set [2]: log P by HPLC on reversed-phase column (C 18), EEC Directive 79831 Annex V.A8. The format is physicochemical. As to the method:
In table 1, the log P values were determined in accordance with EEC Directive 79831 Annex V.A8 by HPLC (High Performance Liquid Chromatography) on a reversed-phase column (C 18), using the method described below: Temperature: 40° C.; Mobile phases: 0.1% aqueous formic acid and acetonitrile; linear gradient from 10% acetonitrile to 90% acetonitrile. Calibration was carried out using unbranched alkan-2-ones (comprising 3 to 16 carbon atoms) with known log P values (determination of the log P values by the retention times using linear interpolation between two successive alkanones). lambda-max-values were determined using UV-spectra from 200 nm to 400 nm and the peak values of the chromatographic signals.

Data set [3] relates to Pyrenophora teres. Put plainly: Example F: in vivo preventive test on Pyrenophora teres (barley), acetone/tween/DMSO preparation. The note with it: 500 ppm of active ingredient, barley, grading 14 days after contamination. As to the method: In Vivo Preventive Test on Pyrenophora teres (Barley) […] Barley plants (“Plaisant” variety), sown in starter cups on a 50/50 peat soil pozzolana substrate and grown at 22° C., are treated at the 1 leaf stage (10 cm height) by spraying with the active ingredient prepared as described above. Plants, used as controls, are treated with the mixture of acetone/tween/DMSO/water not containing the active material. After 24 hours, the plants are contaminated by spraying the leaves with an aqueous suspension of Pyrenophora teres spores (12 000 spores per mL). The spores are collected from a 12-day-old culture. […] Grading (% of efficacy) is carried out 14 days after the contamination, in comparison with the control plants.

The subject of a further data set is Puccinia recondita. Put plainly: Example M: in vivo preventive test on Puccinia recondita (brown rust on wheat). Particulars: 500 ppm of active ingredient, grading 12 days after contamination. As to the method:
In Vivo Preventive Test on Puccinia recondita (Brown Rust on Wheat) […] Wheat plants (“Scipion” variety), sown in starter cups on a 50/50 peat soil pozzolana substrate and grown at 22° C., are treated at the 1 leaf stage (10 cm height) by spraying with the active ingredient prepared as described above. Plants, used as controls, are treated with the mixture of acetone/tween/DMSO/water not containing the active material. After 24 hours, the plants are contaminated by spraying the leaves with an aqueous suspension of Puccinia recondite spores (100 000 spores per mL). The spores are collected from an infected plant and are suspended in water containing 2.5 mL/L of Tween 80 at 10%. […] Grading (% of efficacy) is carried out 12 days after the contamination, in comparison with the control plants.

The next data set has as its system Septoria tritici. The data set can be described thus: Example I: in vivo preventive test on Septoria tritici (wheat), acetone/tween/DMSO preparation. Particulars: 500 ppm of active ingredient, grading 24 days after contamination. As to the method:
In Vivo Preventive Test on Septoria tritici (Wheat) […] Wheat plants (“Scipion” variety), sown in starter cups on a 50/50 peat soil pozzolana substrate and grown at 22° C., are treated at the 1 leaf stage (10 cm height) by spraying with the active ingredient prepared as described above. Plants, used as controls, are treated with the mixture of acetone/tween/DMSO/water not containing the active material. After 24 hours, the plants are contaminated by spraying the leaves with an aqueous suspension of cryopreserved Septoria tritici spores (500 000 spores per mL). The contaminated wheat plants are incubated for 72 hours at 18° C. and at 100% relative humidity, and then for 21 days at 90% relative humidity. Grading (% of efficacy) is carried out 24 days after the contamination, in comparison with the control plants.

The mark [4] stands for this setting: HPLC reversed-phase C 18, 40° C., 0.1% aqueous formic acid and acetonitrile gradient, several values = mixture of two or more isomers.

Regarding `Cn1nc(C(F)F)c(C(=O)N(C2CC2)C2CCC3CCCCC3C2)c1Cl` (mixture of isomers) [Example 37], the Efficacy with Pyrenophora teres [1] was 100%; with Alternaria solani, 95%.
Molecule `Cn1cc(C(=O)NC2CCCC3CCCCC32)c(C(F)F)n1` (mixture of isomers) [Example 29] registered an Efficacy in the data set with Sphaerotheca fuliginea of 95%.
What is called logP is the decadic logarithm of the partition coefficient of the neutral form, usually between octanol and water. In the case of `CC1CC(C)(C)C2CCCC(NC(=O)c3cn(C)nc3C(F)(F)F)C12` (centres unmarked) [Example 17], the Efficacy in the data set with Pyrenophora teres [1] is recorded as 95%; in the data set on Alternaria solani, 94%. The molecule further displayed a logP in data set [2] of 4.00.
On to `Cn1nc(C(F)F)c(C(=O)NC2CCCC3CCCCC32)c1Cl` (mixture of isomers) [Example 30], for which, in the data set with Sphaerotheca fuliginea, the Efficacy is 100%.
As for `Cc1nn(C)c(F)c1C(=O)NC1CCCC2C1C(C)CC2(C)C` (centres unmarked) [Example 15], the Efficacy was 100% in the data set on Pyrenophora teres [1] and 89% in the data set on Alternaria solani. Moreover, the logP in data set [2] is 3.76.
Consider `COc1nn(C)c(F)c1C(=O)N(CC12CC3CC(CC(C3)C1)C2)C1CC1` [Example 110], for which, in data set [2], the lipophilicity (logP) is given as 4.04.
Usually chromatographic logP stands for lipophilicity estimated from chromatographic retention. Consider `CC(NC1CC1)C12CC3CC(CC(C3)C1)C2` (centres unmarked) [N-[1-(adamantan-1-yl)ethyl]cyclopropanamine], for which the chromatographic logP in data set [2] was determined as 5.82.
Take `Cn1nc(C(F)F)c(C(=S)N(C2CC2)C2CCC3CCCC3C2)c1F` (centres unmarked) [Example 24]: in the data set on Pyrenophora teres [1], the Efficacy was 95%. This molecule came in with a log partition coefficient (logP) in data set [2] of 4.90.
The matching figures for `CC1CC(C)(C)C2CCCC(NC(=O)c3c(C(F)F)nn(C)c3Cl)C12` (centres unmarked) [Example 16]: 100% and 4.49.
In data set [2], `Cn1nc(C(F)F)c(C(=O)N(CC23CC4CC(CC(C4)C2)C3)C2CC2)c1Cl` [Example 108] had a logP of 4.68.
Same read-out and setting: the figure for `Cn1nc(C(F)F)c(C(=O)N(CC23CC4CC(CC(C4)C2)C3)C2CC2)c1F` [Example 109] is 4.49.
With `CC1C(CNC(=O)c2c(C(F)F)nn(C)c2F)CC2CC1C2(C)C` (centres unmarked) [Example 81], the Efficacy in the data set with Pyrenophora teres [1] and with Alternaria solani was 100% each time. The molecule further showed a log partition coefficient (logP) in data set [2] of 3.99.
`CC(NC(=O)c1c(C(F)F)nn(C)c1F)C12CC3CC(CC(C3)C1)C2` (centres unmarked) [Example 107]: the Efficacy with Pyrenophora teres [1] came to 80%; with Alternaria solani, 95%. For the same molecule, the lipophilicity (logP) in data set [2] came to 4.03.
In the data set on Alternaria solani, `Cn1nc(C(F)F)c(C(=O)NCC23CC4CC(CC(C4)C2)C3)c1F` [Example 89] gave an Efficacy of 95%. For the same molecule, the logP in data set [2] (setting [4]) amounted to 3.67.
As to `Cn1cc(C(=O)N(C2CC2)C2CCC3CCCCC3C2)c(C(F)F)n1` (mixture of isomers) [Example 36], the Efficacy in the data set with Pyrenophora teres [1] came out at 100%; in the data set on Alternaria solani it was 95%.
`CC1C(CN(C(=O)c2c(C(F)F)nn(C)c2Cl)C2CC2)CC2CC1C2(C)C` (centres unmarked) [Example 79]: the Efficacy in the data set on Pyrenophora teres [1] worked out at 100%; in the data set with Alternaria solani, 94%. The logP in data set [2] was 4.82.
`Cn1nc(C(F)F)c(C(=O)NC2C3(C)CCC(C3)C2(C)C)c1F` (centres unmarked) [Example 40] yielded a logP in data set [2] of 3.70.
`CC(NC(=O)c1c(C(F)F)nn(C)c1Cl)C12CC3CC(CC(C3)C1)C2` (centres unmarked) [Example 106]: the figures for the Efficacy in the data set on Pyrenophora teres [1] and in the data set on Alternaria solani were 90% and 100%, respectively. In addition, in data set [2], the log partition coefficient (logP) is on record as 4.27.
For `CC1C(CNC(=O)c2c(C(F)F)nn(C)c2Cl)CC2CC1C2(C)C` (centres unmarked) [Example 80] the same measures were 100%, 100% and 4.25.
In data set [2], `Cn1cc(C(=O)NC2(C#N)CC3CCC2C3)c(C(F)F)n1` (centres unmarked) [Example 44] showed a logP of 1.97.
The same measure, in the same setting: the same measure for `Cn1cc(C(=O)NC23CC4CC(CC(C4)C2)C3)c(C(F)F)n1` [Example 55]: 3.06.
Take `Cn1cc(C(=O)NC2C3(C)CCC(C3)C2(C)C)c(C(F)F)n1` (centres unmarked) [Example 41]: the lipophilicity (logP) in data set [2] came out at 3.35.
In data set [2], `Cn1nc(C(F)F)c(C(=O)N(CC2CCC3CCCC32)C2CC2)c1F` (centres unmarked) [Example 58] returned a log partition coefficient (logP) of 3.96. In addition, the Efficacy in the data set on Pyrenophora teres [3] came to 100%; with Puccinia recondita it was 98%.
Consider `Cn1cc(C(=O)N(C2CC2)C2CCCC3CCCCC32)c(C(F)F)n1` (mixture of isomers) [Example 33], for which the Efficacy amounted to 92% in the data set with Septoria tritici, 94% with Sphaerotheca fuliginea and 100% in the data set on Pyrenophora teres [3].
As to `Cn1nc(C(F)F)c(C(=O)NCC2CCC3CC2C3(C)C)c1F` (centres unmarked) [Example 84], the Efficacy came to 100% in the data set with Pyrenophora teres [1] and 95% in the data set with Alternaria solani. In data set [2], this molecule showed a log partition coefficient (logP) of 3.62.
Take `Cn1nc(C(F)F)c(C(=O)NC2(C#N)CC3CCC2C3)c1Cl` (centres unmarked) [Example 43]: in data set [2], the lipophilicity (logP) is given as 2.34.
The molecule `Cn1nc(C(F)F)c(C(=O)NC2C3(C)CCC(C3)C2(C)C)c1Cl` (centres unmarked) [Example 39] came in with a logP in data set [2] of 3.92.
As to `CC1CC1N(C(=O)c1c(C(F)(F)F)nn(C)c1F)C(C)C1CC2CCC1C2` (centres unmarked) [Example 112], the logP in data set [2] came out at 4.92.
Same read-out and setting: the figure for `CC(C)N(C(=O)c1c(C(F)F)nn(C)c1Cl)C1CCCC2CCCCC21` (centres unmarked) [Example 26] is 4.83.
On to `Cn1nc(C(F)F)c(C(=O)NCC23CC4CC(CC(C4)C2)C3)c1Cl` [Example 88], for which, in the data set with Alternaria solani, the Efficacy came out at 100%. Further, the logP in data set [2] (setting [4]) amounted to 3.89.
In data set [2], `CC(C)N(C(=O)c1c(C(F)F)nn(C)c1F)C1CCCC2CCCCC21` (centres unmarked) [Example 27] showed a logP of 4.58.
On to `Cn1cc(C(=O)NCC23CC4CC(CC(C4)C2)C3)c(C(F)F)n1` [Example 87], for which the values for the Efficacy in the data set with Sphaerotheca fuliginea and in the data set with Puccinia recondita were 79% and 75%, respectively. For the same molecule, in data set [2], the lipophilicity (logP) came out at 3.29.
In data set [2], `Cn1nc(C(F)F)c(C(=O)NC2(C#N)CC3CCC2C3)c1F` (centres unmarked) [Example 45] yielded a log partition coefficient (logP) of 2.16.
As to `Cn1nc(C(F)F)c(C(=O)NC2CCC3CCCCC3C2)c1Cl` (mixture of isomers) [Example 34], the Efficacy is recorded as 70% in the data set with Pyrenophora teres [1] and 95% with Alternaria solani.
Turning to `Cn1cc(C(=O)N(CC23CC4CC(CC(C4)C2)C3)C2CC2)c(C(F)F)n1` [Example 111], the logP in data set [2] stood at 3.92.
Turning to `Cn1nc(C(F)F)c(C(=S)NC2CCCC3CCCCC32)c1F` (centres unmarked) [Example 28], the Efficacy with Pyrenophora teres [1] is 95%; with Alternaria solani, 70%. The molecule also gave a logP in data set [2] of 4.41.
On to `Cn1nc(C(F)F)c(C(=O)NC2CCC3CCCCC3C2)c1F` (mixture of isomers) [Example 35], for which the Efficacy with Alternaria solani amounted to 80%.
